Test results from patent publication US20260216194A1 (Cyrano Therapeutics, Inc., priority 2020, published 2026).

Experiments:
Assay type in all cases: in vivo, human
[1] = system: patient who had loss of taste and smell from COVID-19; test: Psychophysical smell test, forced-choice three-stimuli stepwise-staircase technique (detection and recognition thresholds for four odors)
Description: The Patient initially reported their sensory dysfunction as either loss of taste (i.e., flavor) and/or smell function. This subjective response was documented by objective psychophysical measurements of olfactory function administered to each patient by use of a forced-choice, three-stimuli, stepwise-staircase technique in a fixed, controlled design (1, 2). Efficacy of this technique and results of testing were previously documented in a double-blind clinical trial (2). Four odors were used; they were pyridine (dead-fish odor), nitrobenzene (bitter-almond odor), thiophene (petroleum-like odor) and amyl acetate (banana-oil odor). Detection thresholds (DT), and recognition thresholds (RT) values for each odor were determined as previously described (1, 2). Thresholds were converted into bottle units (BU) as previously described (2) and results reported as M of correct responses for each odor in each treatment group. References: (1) Henkin, R. I. Evaluation and treatment of human olfactory dysfunction, in Otolaryngology (English, G. M. Ed.), Lippincott, Philadelphia, 1993, Vol. 2, pp. 1-86. (2) Henkin, R. I., Schecter, P. J., Friedewald, W. T., DeMets, D. L., Raff, M. S. A double blind study of the effects of zinc sulfate on taste and smell dysfunction. Amer. J. Med. Sci. 1976; 272:285-299.
(§1) Theophylline was administered to a patient who had loss of taste and smell from COVID-19. A formulation containing 80 μg of theophylline was administered via two actuations from nasal spray device once per day. Prior to the initial administration of theophylline, a baseline smell test was performed. A follow-up smell test was performed 3 months after the initial administration. […] The patient's detection threshold (DT) and recognition threshold (RT) for pyridine (Pyr), nitrobenzene (NO2B), thiophene (Thio) and amyl acetate (AA) was determined before treatment (pre) and after treatment (3M). In all four odorant tests, the patient's detection threshold and recognition threshold improved. An improvement of 1 bottle unit means that a patient could detect and/or recognize an odorant that was 10 times lower in concentration, when compared to baseline. For example, the recognition threshold (RT) of AA improved by 8 bottle units, also equivalent to an improvement of 8 orders of magnitude. In this case, the patient could detect a concentration of AA that was 108 lower in concentration. Bottle unit numbers that are 5 or lower are considered to be in the range of normal.

[2] = system: patient who had loss of taste and smell from COVID-19; test: Side effects during intranasal theophylline treatment; settings: 80 μg theophylline via two actuations from nasal spray device once per day, 3 months
Description: as §1

[3] = system: patient diagnosed or previously diagnosed with COVID-19 and having at least partial smell or taste loss; test: Example 1: intranasal theophylline formulation in a patient with smell or taste loss associated with COVID-19
Description: A patient diagnosed or previously diagnosed with COVID-19 and having at least partial smell or taste loss associated with COVID-19 is treated with an intranasally administered a formulation comprising theophylline, which is given once per day, in each naris, for about 30 days, 60 days, or 90 days.
Administration of the formulation produces an increase in the patient's sonic hedgehog levels or cyclic nucleotide levels within about 30 days, 60 days, or 90 days.

[4] = 3 months after initial administration, 80 μg theophylline intranasal once per day, baseline (Pre) 10, 5 or lower is normal
[5] = 3 months after initial administration, 80 μg theophylline intranasal once per day, baseline (Pre) 11, 5 or lower is normal
[6] = 3 months after initial administration, 80 μg theophylline intranasal once per day, baseline (Pre) 12, 5 or lower is normal

Cn1c(=O)c2[nH]cnc2n(C)c1=O [theophylline]
Detection threshold (DT), thiophene (Thio) [1, 4]: 4 bottle units | Recognition threshold (RT), thiophene (Thio) [1, 4]: 4 bottle units | Detection threshold (DT), amyl acetate (AA) [1, 5]: 4 bottle units | Detection threshold (DT), nitrobenzene (NO2B) [1, 5]: 9 bottle units | Detection threshold (DT), pyridine (Pyr) [1, 5]: 7 bottle units | Recognition threshold (RT), pyridine (Pyr) [1, 5]: 7 bottle units | Recognition threshold (RT), amyl acetate (AA) [1, 6]: 4 bottle units | Recognition threshold (RT), nitrobenzene (NO2B) [1, 6]: 9 bottle units | Improvement of recognition threshold (RT) of AA ([1]; 3 months vs baseline, 1 bottle unit = 10 times lower concentration): 8 bottle units | Detection threshold and recognition threshold in all four odorant tests ([1]; 3 months vs baseline, pyridine, nitrobenzene, thiophene, amyl acetate): improved | Side effects [2]: No side effects were reported | Patient's ability to taste and smell ([3]; intranasal once per day in each naris for about 30, 60 or 90 days): significant increase | Patient's sonic hedgehog levels or cyclic nucleotide levels ([3]; intranasal once per day in each naris, within about 30 days, 60 days, or 90 days): increase
